Reference: US8614217B2 (priority 2008, dated 2013)

Assay: log P(HCOOH) (HPLC/MS)
Assay type: physicochemical
Settings: HCOOH (formic acid); read-out: log P(HCOOH)

| Compound | chromatographic logP |
| --- | --- |
| NOCc1cccc(N)n1 [6-[(aminooxy)methyl]pyridin-2-amine] | < -0.23 |
| Cn1nnnc1/C(=N\OCc1cccc(NC(=O)OCCCCCl)n1)c1ccccc1 [Example 67, 4-chlorobutyl {6-[({[(Z)-(1-methyl-1H-tetrazol-5-yl)(phenyl)methylene]amino}oxy)methyl]pyridin-2-yl}carbamate] | 3.67 |

Same assay, conditions: HPLC on reversed phase columns, EEC directive 79/831 Annex V.A8; pH 2.7, 0.1% formic acid in water / acetonitrile gradient

| Compound | log p |
| --- | --- |
| Cc1nnnn1C(=NOCc1cccc(NC(=O)CSCc2ccccc2)n1)c1ccccc1 [Example 151] | 3.73 |
| Cc1nnnn1C(=NOCc1cccc(NC(=O)OCCCCCl)n1)c1ccccc1 [Example 20] | 3.73 |
| C#CCCOC(=O)Nc1cccc(CON=C(c2ccccc2)n2nnnc2C)n1 [Example 17] | 3.15 |
| C=CCCOC(=O)Nc1cccc(CON=C(c2ccccc2)c2nnnn2C)n1 [Example 57] | 3.51 |
| COC(=O)CCCCC(=O)Nc1cccc(CON=C(c2ccccc2)n2nnnc2C)n1 [Example 145] | 2.86 |
| Cn1nnnc1C(=NOCc1csc(NC(=O)CCC2CCCCC2)n1)c1ccccc1 [Example 206] | 4.3 |
| Cc1nnnn1C(=NOCc1csc(NC(=O)C2CCOCC2)n1)c1ccccc1 (mixture of isomers) [Example 73] | 2.49 |
| COCCOCC(=O)Nc1nc(CON=C(c2cccc(F)c2)c2nnnn2C)cs1 [Example 183] | 2.68 |
| Cn1nnnc1C(=NOCc1csc(NC(=O)C(F)(F)C(F)(F)C(F)(F)F)n1)c1cccc(F)c1 [Example 192] | 3.75 |
| C=C(C)OC(=O)Nc1cccc(CON=C(c2ccccc2)n2nnnc2C)n1 [Example 107] | 3.21 |
| COCCOCCOCC(=O)Nc1nc(CON=C(c2cccc(F)c2)c2nnnn2C)cs1 [Example 186] | 2.66 |
| Cn1nnnc1C(=NOCc1cccc(NC(=O)c2cccs2)n1)c1ccccc1 [Example 214] | 3.21 |
| C#CCCCC(=O)Nc1cccc(CON=C(c2ccccc2)c2nnnn2C)n1 [Example 55] | 2.98 |
| Cc1nnnn1C(=NOCc1cccc(NC(=O)OC2CCCCCC2)n1)c1ccccc1 [Example 21] | 4.71 |
| Cc1nnnn1C(=NOCc1cccc(NC(=O)CC2CC2)n1)c1ccccc1 [Example 124] | 2.94 |
| Cn1nnnc1C(=NOCc1csc(NC(=O)CCCOc2ccccc2)n1)c1cccc(F)c1 [Example 196] | 3.7 |
| Cc1nnnn1C(=NOCc1csc(NC(=O)CCCC2CCCCC2)n1)c1ccccc1 [Example 229] | 4.82 |
| C#CCCOC(=O)Nc1cccc(CON=C(c2cccc(F)c2)n2nnnc2C)n1 [Example 23] | 3.21 |
| Cc1nnnn1C(=NOCc1cccc(NC(=O)CCC2CCCC2)n1)c1ccccc1 [Example 44] | 4.25 |
| CC(=O)OCCCCOC(=O)Nc1nc(CON=C(c2cccc(F)c2)c2nnnn2C)cs1 [Example 198] | 3.15 |
| Cc1nnnn1C(=NOCc1cccc(NC(=O)C2(c3ccccc3)CC2)n1)c1ccccc1 [Example 110] | 2.55 |
| C=CCOC(=O)Nc1cccc(CON=C(c2ccccc2)c2nnnn2C)n1 [Example 56] | 3.21 |
| CC1CCC(C(C)C)C(OCC(=O)Nc2nc(CON=C(c3cccc(F)c3)c3nnnn3C)cs2)C1 (stereo not drawn) [Example 172] | 5.47 |
| Cn1nnnc1C(=NOCc1cccc(NC(=O)CCOc2ccccc2)n1)c1cccc(F)c1 [Example 10] | 3.64 |
| Cc1nnnn1C(=NOCc1cccc(NC(=O)CO[C@@H]2C[C@H](C)CC[C@H]2C(C)C)n1)c1ccccc1 [Example 126] | 5.95 |
| Cc1nnnn1C(=NOCc1cccc(NC(=O)CC2CCCCC2)n1)c1ccccc1 [Example 40] | 4.12 |
| Cc1nnnn1C(=NOCc1cccc(NC(=O)C(F)(F)C(F)(F)C(F)(F)C(F)(F)C(F)(F)C(F)(F)C(F)(F)F)n1)c1ccccc1 [Example 119] | 5.93 |
| Cc1nnnn1C(=NOCc1cccc(NC(=O)C(F)(F)Sc2ccccc2)n1)c1ccccc1 [Example 48] | 4.2 |
| Cn1nnnc1C(=NOCc1csc(NC(=O)OCC(Cl)(Cl)Cl)n1)c1ccccc1 [Example 245] | 3.7 |

Same assay, conditions: HPLC on reversed phase columns, EEC directive 79/831 Annex V.A8; pH 2.7, 0.1% formic acid in water / acetonitrile gradient; read-out: log p

| Compound | chromatographic logP |
| --- | --- |
| C#CCCCC(=O)Nc1cccc(CON=C(c2ccccc2)n2nnnc2C)n1 [Example 34] | 3.04 |
| Cn1nnnc1/C(=N\OCc1cccc(NC(=O)OCCCCCl)n1)c1ccccc1 [Example 67, 4-chlorobutyl {6-[({[(Z)-(1-methyl-1H-tetrazol-5-yl)(phenyl)methylene]amino}oxy)methyl]pyridin-2-yl}carbamate] | 3.67 |

Same assay, conditions: HPLC on reversed phase columns, EEC directive 79/831 Annex V.A8; pH 2.7 with 0.1% formic acid in water and acetonitrile

| Compound | log p |
| --- | --- |
| COc1ccccc1C(=O)Nc1cccc(CON=C(c2cccc(F)c2)c2nnnn2C)n1 [Example 345] | 3.79 |
| Cn1nnnc1C(=NOCc1csc(NC(=O)COc2ccccc2-c2ccccc2)n1)c1ccccc1 [Example 289] | 4.32 |
| Cn1nnnc1C(=NOCc1csc(NC(=O)c2cc(F)cc(F)c2)n1)c1ccccc1 [Example 340] | 3.63 |
| Cn1nnnc1C(=NOCc1cccc(NC(=O)c2ccc(F)cc2)n1)c1cccc(F)c1 [Example 329] | 3.57 |
| Cn1nnnc1C(=NOCc1csc(NC(=O)COc2cccc(Cl)c2)n1)c1ccccc1 [Example 249] | 3.7 |
| C=CCCOC(=O)Nc1cccc(CON=C(c2ccccc2C)c2nnnn2C)n1 (mixture of isomers) [Example 315] | 3.65 |
| Cn1nnnc1C(=NOCc1cccc(NC(=O)c2ccccc2OC(F)(F)F)n1)c1cccc(F)c1 [Example 328] | 3.9 |
| COc1ccccc1C(=O)Nc1nc(CON=C(c2ccccc2)c2nnnn2C)cs1 [Example 322] | 3.5 |
| Cn1nnnc1C(=NOCc1cccc(NC(=O)c2ccccc2Cl)n1)c1cccc(F)c1 [Example 362] | 3.57 |
| Cc1ccc(C(=O)Nc2cccc(CON=C(c3ccccc3)c3nnnn3C)n2)cc1 [Example 306] | 3.65 |
| Cn1nnnc1C(=NOCc1cccc(NC(=O)c2cccnc2Cl)n1)c1cccc(F)c1 [Example 360] | 2.94 |
| CC1CCC(C(C)C)C(OCC(=O)Nc2nc(CON=C(c3ccccc3)c3nnnn3C)cs2)C1 (stereo not drawn) [Example 284] | 5.39 |
| Cn1nnnc1C(=NOCc1cccc(NC(=O)CCOc2ccccc2)n1)c1ccccc1Cl (mixture of isomers) [Example 373] | 3.63 |
| Cc1ccccc1C(=O)Nc1cccc(CON=C(c2cccc(F)c2)c2nnnn2C)n1 [Example 331] | 3.61 |
| Cn1nnnc1C(=NOCc1cccc(NC(=O)c2ccccc2F)n1)c1cccc(F)c1 [Example 366] | 3.65 |
| CCCCc1ccc(C(=O)Nc2nc(CON=C(c3ccccc3)c3nnnn3C)cs2)cc1 [Example 268] | 4.68 |
| Cn1nnnc1C(=NOCc1cccc(NC(=O)c2ccccc2Br)n1)c1cccc(F)c1 [Example 365] | 3.59 |
| Cn1nnnc1C(=NOCc1csc(NC(=O)COc2ccccc2Cl)n1)c1ccccc1 [Example 247] | 3.61 |
| Cc1ccccc1C(=O)Nc1nc(CON=C(c2ccccc2)c2nnnn2C)cs1 [Example 327] | 3.41 |
| C#CCCOC(=O)Nc1cccc(CON=C(c2ccccc2Cl)c2nnnn2C)n1 (mixture of isomers) [Example 372] | 3.21 |
| C#CCCOC(=O)Nc1cccc(CON=C(c2cccc(F)c2)c2nnnn2C)n1 [Example 374] | 3.21 |
| Cn1nnnc1C(=NOCc1csc(NC(=O)c2ccccc2OC(F)(F)F)n1)c1ccccc1 [Example 325] | 3.61 |
| COCCOCC(=O)Nc1nc(CON=C(c2ccccc2)c2nnnn2C)cs1 [Example 286] | 2.54 |
| Cn1nnnc1C(=NOCc1csc(NC(=O)COc2ccc(Cl)cc2)n1)c1ccccc1 [Example 250] | 3.68 |
